This passage reports inhibition and viability results from ChEMBL document CHEMBL3112432, “Synthesis of 5α-cholestan-6-one derivatives and their inhibitory activities of NO production in activated microglia: discovery of a novel neuroinflammation inhibitor” (Bioorg Med Chem Lett, 2014).

Data set [1] can be described thus: Antiinflammatory activity in LPS-stimulated mouse BV2 cells assessed as inhibition of NO production at 40 uM after 24 hrs by Griess method relative to control. Format: functional. Particulars: BV-2, 24 h.
A short description of data set [2]: Cytotoxicity against mouse BV2 cells assessed as cell viability at 40 uM after 24 hrs by MTT assay relative to control. In kind it is cell-based, BV-2. Particulars: read-out: Activity. (Formazan colour is commonly taken as a measure of viable cells.)

The inhibition is the relative decrease from the control value, in per cent. `COC(=O)CC[C@@H](C)[C@H]1CC[C@H]2[C@@H]3[C@H](O)C(=O)[C@H]4C[C@H](O)[C@@H](F)C[C@]4(C)[C@H]3CC[C@]12C`: in data set [1], the inhibition at 40 µM turned out to be 75.1%. Besides, in data set [2], the viability at 24 h, 40 µM was 80.5%.

For the compound `COC(=O)CC[C@@H](C)[C@H]1CC[C@H]2[C@@H]3[C@H](F)C(=O)[C@H]4C[C@@H]5O[C@@H]5C[C@]4(C)[C@H]3CC[C@]12C`, in data set [1], the inhibition at 40 µM is 32.6%. Besides, in data set [2], the viability at 24 h, 40 µM is 97.2%.

As for `C[C@H]([C@H](O)CO)[C@H]1CC[C@H]2[C@@H]3[C@H](O)C(=O)[C@H]4C[C@H](O)CC[C@]4(C)[C@H]3CC[C@]12C`, the inhibition at 40 µM in data set [1] came to 47.1%. Moreover, the viability at 24 h, 40 µM in data set [2] was found to be 95.7%.

In the case of `C[C@H]([C@H](O)CO)[C@H]1CC[C@H]2[C@@H]3[C@H](O)C(=O)[C@H]4C[C@@H](F)CC[C@]4(C)[C@H]3CC[C@]12C`, in data set [1], the inhibition at 40 µM was found to be 91.9%. In addition, in data set [2], the viability at 24 h, 40 µM was 78.6%.

Regarding `COC(=O)CC[C@@H](C)[C@H]1CC[C@H]2[C@@H]3CC(=O)[C@H]4C[C@H](O)[C@@H](F)C[C@]4(C)[C@H]3CC[C@]12C`, in data set [1], the inhibition at 40 µM came to 46.1%. Also, the viability at 24 h, 40 µM in data set [2] stood at 95.8%.

`COC(=O)CC[C@@H](C)[C@H]1CC[C@H]2[C@@H]3CC(=O)[C@H]4C[C@@H](O)CC[C@]4(C)[C@H]3CC[C@]12C`: in data set [1], the inhibition at 40 µM turned out to be 18.1%. Moreover, the viability at 24 h, 40 µM in data set [2] was 27.8%.

Regarding `COC(=O)CC[C@@H](C)[C@H]1CC[C@H]2[C@@H]3CC(=O)[C@H]4C[C@@H](Br)CC[C@]4(C)[C@H]3CC[C@]12C`, the inhibition at 40 µM in data set [1] amounted to 41.5%. For the same compound, the viability at 24 h, 40 µM in data set [2] worked out at 81.5%.

On to `COC(=O)CC[C@@H](C)[C@H]1CC[C@H]2[C@@H]3CC(=O)[C@H]4C[C@H](O)[C@@H](O)C[C@]4(C)[C@H]3CC[C@]12C`, for which the inhibition at 40 µM in data set [1] worked out at 44.9%. The viability at 24 h, 40 µM in data set [2] was 79.5%.

Regarding `C=C[C@@H](C)[C@H]1CC[C@H]2[C@@H]3CC(=O)[C@H]4C[C@H](O)CC[C@]4(C)[C@H]3CC[C@]12C`, the inhibition at 40 µM in data set [1] came to 24.5%. Further, the viability at 24 h, 40 µM in data set [2] amounted to 96.4%.

Take `C=C[C@@H](C)[C@H]1CC[C@H]2[C@@H]3[C@H](O)C(=O)[C@H]4C[C@H](O)[C@@H](F)C[C@]4(C)[C@H]3CC[C@]12C`: in data set [1], the inhibition at 40 µM is 92.7%. In addition, in data set [2], the viability at 24 h, 40 µM was 55.9%.

As to `COC(=O)CC[C@@H](C)[C@H]1CC[C@H]2[C@@H]3CC(=O)[C@H]4CC(=O)CC[C@]4(C)[C@H]3CC[C@]12C`, the inhibition at 40 µM in data set [1] amounted to 48.2%. Also, in data set [2], the viability at 24 h, 40 µM was 78%.

Consider `C=C[C@@H](C)[C@H]1CC[C@H]2[C@@H]3[C@H](O)C(=O)[C@H]4C[C@@H](O)CC[C@]4(C)[C@H]3CC[C@]12C`, for which the inhibition at 40 µM in data set [1] turned out to be 59.5%. For the same compound, the viability at 24 h, 40 µM in data set [2] worked out at 81.8%.

Take `COC(=O)CC[C@@H](C)[C@H]1CC[C@H]2[C@@H]3[C@H](F)C(=O)[C@H]4C[C@H](O)[C@H](O)C[C@]4(C)[C@H]3CC[C@]12C`: the inhibition at 40 µM in data set [1] turned out to be 72.4%. In addition, in data set [2], the viability at 24 h, 40 µM was found to be 69.9%.

In the case of `COC(=O)CC[C@@H](C)[C@H]1CC[C@H]2[C@@H]3CC(=O)[C@H]4C[C@H](O)CC[C@]4(C)[C@H]3CC[C@]12C`, the inhibition at 40 µM in data set [1] worked out at 39.4%. Besides, in data set [2], the viability at 24 h, 40 µM amounted to 87.7%.

Take `C[C@H]([C@H](O)CO)[C@H]1CC[C@H]2[C@@H]3[C@H](F)C(=O)[C@H]4C[C@@H](F)CC[C@]4(C)[C@H]3CC[C@]12C`: the inhibition at 40 µM in data set [1] worked out at 35.9%. Further, in data set [2], the viability at 24 h, 40 µM stood at 81.7%.
